Where “and” joins values, the source holds several entries; their conditions need not be identical. Identical values can stand only once. Like-named read-outs stand apart in the source and are kept apart here.
Experiments:
[1] = molecular target: T1, CDK9-CYCLINT1 (Homo sapiens, UniProt P50750); assay: CDK inhibition assay (microfluidic LabChip, IC50 format); assay type: biochemical
T1 construct: purchased Carna

[2] = molecular target: T2, CDK6-CYCLIND3 (Homo sapiens, UniProt Q00534); assay: as above; assay type: biochemical
T2 construct: purchased Carna

[3] = test system: all cell lines tested; assay: 2D cell proliferation assay, geometric mean over the cell line panel; assay type: cell-based; conditions: Table 5 lower part; geometric mean over the 8-line panel; read-out: Geomean abs. IC50 value
Procedure: (§1) Viability of the cells was analyzed by using the CellTiter-Blue® Cell Viability Assay (Promega), and was performed according to manufacturer's instructions. Briefly, cells were harvested from exponential phase cultures (Chapter 6.6), counted and plated in 96-well flat-bottom microtiter plates at a cell density of 4,000-60,000 cells/well in a volume of 140 μl per well. After a 24 hours recovery period, 10 μL cell culture medium (six control wells/plate) or culture medium with test compound were added (Chapter 6.2). The compounds were applied at five concentrations in full-log increments up to 100 μM in duplicate. Cultures were incubated at 37° C. and 5% CO2 in a humidified atmosphere for another three days. After three days of treatment, 20 μl/well CellTiter-Blue® reagent was added. Following incubation with CellTiter-Blue® reagent for up to four hours, fluorescence (FU) was measured by using the Enspire Multimode Plate Reader (excitation λ=570 nm, emission λ=600 nm). For calculations, the mean values of duplicate/sextuplicate (untreated control) data were used.
(§2) IC values are reported as relative IC50 values and absolute IC50 and IC70 values. […] The absolute IC70 value gives the concentration of the test compound that achieves T/C=30%. The relative IC50 value is the concentration of test compound that gives a response halfway between the top and bottom plateau of the sigmoidal concentration-response curve (inflection point of the curve). Calculation was done by 4parameter non-linear curve fit (Oncotest Data Warehouse Software).
(§3) If an IC50 or IC70 value could not be determined within the examined dose range (because a compound was either too active or lacked activity), the lowest or highest concentration studied was used for calculation of the geometric mean value.
The overall potency of a compound was determined by the geometric mean IC50/IC70 values of all individual IC50/IC70 values. In the heatmap representation of IC50 and IC70 values, the distribution of the IC50 or IC70 values obtained for a test compound in the individual cell lines is given in relation to the geometric mean IC50 or IC70 value, obtained over all PDX models tested. The individual IC values range from 1/32-fold geometric mean IC (corresponding to very potent compound activity or high tumor sensitivity) to 32-fold geometric mean IC (corresponding to lack of compound activity or tumor resistance). The heatmap presentation, therefore, represents an antiproliferative “fingerprint” profile of a test compound.

[4] = molecular target: T3, CDK2-CYCLINA (Homo sapiens, UniProt P24941); assay: CDK inhibition assay (microfluidic LabChip, IC50 format); assay type: biochemical
T3 construct: purchased Millipore

[5] = test system: LEXFAM MV4-11; assay: 2D cell proliferation assay (CellTiter-Blue); assay type: cell-based; conditions: Homo sapiens, 72 h, three days of treatment, read-out: abs. IC50
Procedure: as §1
(§4) An assay was considered fully evaluable if the following quality control criteria were fulfilled: • control/background ratio>3.0-Z′-factor calculated within the assay plate>0.5 [7]—coefficient of variation in the growth control wells <30%
(§5) Drug effects were expressed in terms of the percentage of the fluorescence signal, obtained by comparison of the mean signal in the treated wells with the mean signal of the untreated controls (expressed by the test-versus-control value, T/C-value [%]):
as §2, §3

[6] = test system: MEXF WM-266-4; assay: 2D cell proliferation assay (CellTiter-Blue); assay type: cell-based; conditions: Homo sapiens, 72 h, three days of treatment, read-out: abs. IC50
Procedure: as §1, §4, §5, §2, §3

[7] = test system: LXFA A549; assay: 2D cell proliferation assay (CellTiter-Blue); assay type: cell-based; conditions: Homo sapiens, 72 h, three days of treatment, read-out: abs. IC50
Procedure: as §1, §4, §5, §2, §3

[8] = test system: MAXFTN ZR-75-1 (ER+); assay: 2D cell proliferation assay (CellTiter-Blue); assay type: cell-based; conditions: Homo sapiens, 72 h, three days of treatment, read-out: abs. IC50
Procedure: as §1, §4, §5, §2, §3

[9] = test system: LXFL NCl-H1299; assay: 2D cell proliferation assay (CellTiter-Blue); assay type: cell-based; conditions: 72 h, three days of treatment, read-out: abs. IC50
Procedure: as §1, §4, §5, §2, §3

[10] = test system: LEXFAL MOLT-4; assay: 2D cell proliferation assay (CellTiter-Blue); assay type: cell-based; conditions: Homo sapiens, 72 h, three days of treatment, read-out: abs. IC50
Procedure: as §1, §4, §5, §2, §3

[11] = test system: MAXFTN MDA-MB-231 (ER−); assay: 2D cell proliferation assay (CellTiter-Blue); assay type: cell-based; conditions: Homo sapiens, 72 h, three days of treatment, read-out: abs. IC50
Procedure: as §1, §4, §5, §2, §3

[12] = test system: MAXFLB MCF7 (ER+); assay: 2D cell proliferation assay (CellTiter-Blue); assay type: cell-based; conditions: Homo sapiens, 72 h, three days of treatment, read-out: abs. IC50
Procedure: as §1, §4, §5, §2, §3

[13] = molecular target: CDK4-CYCLIND1 (Homo sapiens, UniProt P11802); assay: CDK inhibition assay (microfluidic LabChip, IC50 format)
[14] = molecular target: CDK7 CyclinH (Homo sapiens, UniProt P50613); assay: as above; assay type: biochemical; conditions: Table 4a
[15] = molecular target: T4, CDK2-CYCLINE (Homo sapiens, UniProt P24941); assay: as above; assay type: biochemical; conditions: Table 3; purified enantiomers; read-out: CDK2-E (E1/E2)
T4 construct: purchased Millipore

[16] = Pharmacokinetics after IV bolus; assay type: in vivo; conditions: rat, plasma; rats; IV bolus 30 mg/kg; N = 3
Procedure: (§6) Nonclinical pharmacokinetic (PK) parameters of lead CDK4/6/9 inhibitors were determined in an intravenous (IV) and oral study (p.o.) conducted in rats. Lead compounds were each administered as a single oral dose at 100 mg/kg or by IV bolus via the caudal vein at the dose of 30 mg/kg. Blood samples were collected at 0.25, 0.5, 1, 2, 4, 8, 12, and 24 hours post i.v. administration, and at 1, 2, 4, 8, 24 and 48 hours post oral administration. Plasma was processed for drug concentration analysis using a validated LCMS/MS method, and PK parameters were calculated by using WinNonlin.

[17] = Pharmacokinetics after oral administration; assay type: in vivo; conditions: rat, plasma, rats
Procedure: as §6

[18] = Table 4a, read-out: CDK9 CyclinT1 IC50
[19] = Table 4a, read-out: CDK6 CyclinD3 IC50
[20] = Table 4a, read-out: CDK2 CyclinA IC50
[21] = CDK4 CyclinD1 IC50, Table 4a, a second value in parentheses for some compounds
[22] = oral administration 100 mg/kg, N = 3

T2 sequence (Q00534 whole entry): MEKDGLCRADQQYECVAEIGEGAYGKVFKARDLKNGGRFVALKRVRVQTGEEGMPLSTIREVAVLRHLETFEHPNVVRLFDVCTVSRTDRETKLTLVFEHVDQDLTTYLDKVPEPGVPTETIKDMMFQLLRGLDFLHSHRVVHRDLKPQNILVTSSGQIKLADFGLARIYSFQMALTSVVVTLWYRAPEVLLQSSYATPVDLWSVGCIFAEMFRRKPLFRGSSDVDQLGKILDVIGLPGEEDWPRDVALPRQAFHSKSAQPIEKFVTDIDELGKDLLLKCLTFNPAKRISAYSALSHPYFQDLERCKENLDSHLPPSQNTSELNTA
T2 sequence (P30281 whole entry partner): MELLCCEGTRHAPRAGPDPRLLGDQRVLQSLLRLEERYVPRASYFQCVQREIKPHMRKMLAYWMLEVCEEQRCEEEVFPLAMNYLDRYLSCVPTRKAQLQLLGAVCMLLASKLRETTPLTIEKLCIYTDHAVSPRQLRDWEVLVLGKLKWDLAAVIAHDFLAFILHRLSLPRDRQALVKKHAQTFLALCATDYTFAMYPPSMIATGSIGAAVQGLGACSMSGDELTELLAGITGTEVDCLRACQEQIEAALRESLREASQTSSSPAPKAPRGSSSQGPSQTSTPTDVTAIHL
T1 sequence (P50750 whole entry): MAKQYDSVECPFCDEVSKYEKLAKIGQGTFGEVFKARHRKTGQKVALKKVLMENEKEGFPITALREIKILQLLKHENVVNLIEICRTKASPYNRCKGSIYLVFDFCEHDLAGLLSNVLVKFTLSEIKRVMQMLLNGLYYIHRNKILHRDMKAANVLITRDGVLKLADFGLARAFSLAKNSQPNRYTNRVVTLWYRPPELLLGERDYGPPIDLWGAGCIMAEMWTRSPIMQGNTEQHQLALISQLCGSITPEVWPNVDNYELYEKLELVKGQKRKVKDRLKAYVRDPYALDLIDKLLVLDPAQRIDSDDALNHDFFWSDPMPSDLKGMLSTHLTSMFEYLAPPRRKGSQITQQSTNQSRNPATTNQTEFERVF
T1 sequence (O60563 whole entry partner): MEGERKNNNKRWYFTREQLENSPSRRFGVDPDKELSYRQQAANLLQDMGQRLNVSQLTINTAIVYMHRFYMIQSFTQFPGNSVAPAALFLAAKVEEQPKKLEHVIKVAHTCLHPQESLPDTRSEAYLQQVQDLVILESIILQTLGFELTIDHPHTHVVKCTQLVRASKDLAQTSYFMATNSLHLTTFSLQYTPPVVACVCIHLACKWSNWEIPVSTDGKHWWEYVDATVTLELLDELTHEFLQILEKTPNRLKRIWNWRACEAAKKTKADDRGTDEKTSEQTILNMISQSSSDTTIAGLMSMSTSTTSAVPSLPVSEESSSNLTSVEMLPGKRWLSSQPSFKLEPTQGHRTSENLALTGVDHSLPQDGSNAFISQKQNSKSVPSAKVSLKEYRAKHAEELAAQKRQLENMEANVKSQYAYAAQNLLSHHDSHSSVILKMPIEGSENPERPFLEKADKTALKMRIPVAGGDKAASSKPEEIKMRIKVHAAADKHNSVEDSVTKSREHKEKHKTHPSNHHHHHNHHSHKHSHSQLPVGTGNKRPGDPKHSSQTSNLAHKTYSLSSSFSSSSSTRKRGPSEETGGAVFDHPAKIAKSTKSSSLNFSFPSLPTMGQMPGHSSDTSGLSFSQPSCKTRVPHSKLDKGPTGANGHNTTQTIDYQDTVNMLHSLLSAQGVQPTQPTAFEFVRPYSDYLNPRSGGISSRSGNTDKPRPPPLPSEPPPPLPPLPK
Sequence of CDK4-CYCLIND1 (P11802 whole entry): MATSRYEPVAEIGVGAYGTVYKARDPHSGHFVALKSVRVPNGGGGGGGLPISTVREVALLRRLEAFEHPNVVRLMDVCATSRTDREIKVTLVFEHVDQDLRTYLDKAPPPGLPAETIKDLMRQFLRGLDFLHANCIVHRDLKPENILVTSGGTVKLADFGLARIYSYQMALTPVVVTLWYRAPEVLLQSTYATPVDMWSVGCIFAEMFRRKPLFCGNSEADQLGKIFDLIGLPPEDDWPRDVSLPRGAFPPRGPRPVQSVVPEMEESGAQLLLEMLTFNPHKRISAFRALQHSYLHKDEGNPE
Sequence of CDK4-CYCLIND1 (P24385 whole entry partner): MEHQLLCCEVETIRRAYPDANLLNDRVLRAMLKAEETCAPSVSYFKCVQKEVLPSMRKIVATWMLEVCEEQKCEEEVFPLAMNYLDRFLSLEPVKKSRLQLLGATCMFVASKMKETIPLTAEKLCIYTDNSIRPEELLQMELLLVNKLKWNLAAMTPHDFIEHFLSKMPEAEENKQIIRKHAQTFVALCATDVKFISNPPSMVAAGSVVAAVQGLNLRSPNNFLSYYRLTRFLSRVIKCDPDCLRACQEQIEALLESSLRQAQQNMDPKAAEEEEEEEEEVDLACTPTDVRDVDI
Sequence of CDK7 CyclinH (P50613 whole entry): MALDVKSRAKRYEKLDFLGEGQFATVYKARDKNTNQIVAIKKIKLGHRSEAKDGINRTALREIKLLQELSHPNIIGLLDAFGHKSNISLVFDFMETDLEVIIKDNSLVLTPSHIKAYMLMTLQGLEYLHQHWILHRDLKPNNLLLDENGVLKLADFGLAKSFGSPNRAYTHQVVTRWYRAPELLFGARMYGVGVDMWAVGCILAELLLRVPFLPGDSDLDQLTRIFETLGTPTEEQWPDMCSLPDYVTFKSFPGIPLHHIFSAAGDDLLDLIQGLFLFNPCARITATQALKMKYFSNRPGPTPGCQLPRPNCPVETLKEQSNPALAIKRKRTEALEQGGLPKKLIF
Sequence of CDK7 CyclinH (P51946 whole entry partner): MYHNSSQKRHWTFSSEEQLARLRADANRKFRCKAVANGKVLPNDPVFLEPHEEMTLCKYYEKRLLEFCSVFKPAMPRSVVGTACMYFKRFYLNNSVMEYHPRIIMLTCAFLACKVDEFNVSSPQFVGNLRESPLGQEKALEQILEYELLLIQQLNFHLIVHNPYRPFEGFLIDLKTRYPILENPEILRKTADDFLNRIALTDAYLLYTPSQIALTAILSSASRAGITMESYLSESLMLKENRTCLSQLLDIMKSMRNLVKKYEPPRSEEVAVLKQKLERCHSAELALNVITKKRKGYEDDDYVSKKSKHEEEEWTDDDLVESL
Sequence of CDK7 CyclinH (P51948 whole entry partner): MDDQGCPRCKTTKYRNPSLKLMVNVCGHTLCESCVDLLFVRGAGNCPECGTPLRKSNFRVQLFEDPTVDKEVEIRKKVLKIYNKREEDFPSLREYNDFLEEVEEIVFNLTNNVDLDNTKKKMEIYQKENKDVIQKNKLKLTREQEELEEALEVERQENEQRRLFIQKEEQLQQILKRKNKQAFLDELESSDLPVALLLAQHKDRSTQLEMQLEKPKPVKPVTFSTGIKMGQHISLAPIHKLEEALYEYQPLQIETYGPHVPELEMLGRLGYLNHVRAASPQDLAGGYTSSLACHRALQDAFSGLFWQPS

SMILES | IC50 [1, 18] [nM] | IC50 [2, 19] [nM] | IC50 [3] [nM] | IC50 [4, 20] [nM] | IC50 [5] [nM] | IC50 [6] [nM] | IC50 [7] [nM] | IC50 [8] [nM] | IC50 [9] [nM] | IC50 [10] [nM] | IC50 [11] [nM] | IC50 [12] [nM] | IC50 [13, 21] | IC50 [14] [nM] | also measured
CN(C)[C@@H]1CCN(c2ccc(Nc3ncc4c(n3)N(C3CCCC3)C(=O)[C@]3(CCNC3=O)C4)cc2F)C1 [Example D176, (S)-8-cyclopentyl-2-((4-((R)-3-(dimethylamino)pyrrolidin-1-yl)-3-fluorophenyl)amino)-5,8-dihydro-7H-spiro[pyrido[2,3-d]pyrimidine-6,3′-pyrrolidine]-2′,7-dione] | 2.73 | 2.07 | 179 | 33.3 | 28 | 548 | 440 | 648 | 229 | 97 | 172 | 62 | 1.12 nM and 0.64 nM | 126 | 
O=C1NCC[C@@]12Cc1cnc(Nc3ccc(N4CCNCC4)c(F)c3)nc1N(C1CCCC1)C2=O [Example D50, (S)-8-cyclopentyl-2-((3-fluoro-4-(piperazin-1-yl)phenyl)amino)-5,8-dihydro-7H-spiro[pyrido[2,3-d]pyrimidine-6,3′-pyrrolidine]-2′,7-dione] |  |  | 173 |  | ≤ 10 | 46 | 338 | 23300 | 187 | 101 | 150 | 80 |  |  | IC50 [15]: 62.4 nM; IC50 ([1]; Table 3, purified enantiomers, read-out: CDK9-T (E1/E2)): 4.37 nM; IC50 ([2]; Table 3, purified enantiomers, read-out: CDK6 (E1/E2)): 1.29 nM; IC50 ([4]; Table 3, purified enantiomers, read-out: CDK2-A (E1/E2)): 29.1 nM; IC50 ([13]; CDK4 (E1/E2), Table 3, purified enantiomers): 0.78 nM
CC(C)N1CCN(c2ccc(Nc3ncc4c(n3)N(C3CCCC3)C(=O)[C@]3(CCNC3=O)C4)cc2)CC1 [Example D145, (S)-8-cyclopentyl-2-((4-(4-isopropylpiperazin-1-yl)phenyl)amino)-5,8-dihydro-7H-spiro[pyrido[2,3-d]pyrimidine-6,3′-pyrrolidine]-2′,7-dione] | 5.02 | 1.65 | 189 | 21.7 | ≤ 10 | 47 | 148 | ≥ 100000 | 108 | 84 | 300 | 88 | 0.784 nM | 153 | Cmax [16]: 7730 ng/mL; clearance [16]: 35.2 mL/min/kg; half-life [16]: 1.93 h; bioavailability ([17]; oral 100 mg/kg versus IV 30 mg/kg, read-out: BIOAVAILABILITY F): 43.8%; AUC [17, 22]: 21500 ng·h/mL; Cmax [17, 22]: 4470 ng/mL; MRT [17, 22]: 4.37 h; half-life [17, 22]: 5.6 h

Source: US20230048132A1, “CYCLIN-DEPENDENT KINASE INHIBITORS” (SPV THERAPEUTICS INC., priority 2018, published 2023)
